Data as given in the supplement of paper PMC10307832.

Tests used:
Assay in all cases: relative viability (nuclei count vs DMSO), 5 days (fraction); higher = more cells survive
[1] = compound: C1/C(=C\C2=CC=CS2)/C(=O)/C(=C/C3=CC=CS3)/C1
Outline: (§1)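 Hoechst staining, done together with fixation and permeabilisation, marked nuclei for 4× imaging and MetaXpress counting. This followed 5 days without medium change after lung cancer cell lines, kept overnight at 37 °C in 1536-well plates, were pinned with five library-drug doses (not always all listed) spaced by √10 on vehicle-anchored plates. Viability is the ratio of treated-well to vehicle-well nuclei, expressed as a median across plates. Plates passed only at control CV below 25% with at least one doubling.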

Lestaurtinib = compound: C[C@]12O[C@H](C[C@]1(O)CO)n1c3ccccc3c3c4c(c5c6ccccc6n2c5c31)CNC4=O [Lestaurtinib]
Outline: as §1

TPCA-1 = compound: C1=CC(=CC=C1C2=CC(=C(S2)NC(=O)N)C(=O)N)F [TPCA-1]
Outline: as §1

[2] = compound: C1/C(=C\C2=CC=CS2)/C(=O)/C(=C/C3=CC=CS3)/C1 + Cc1nc(NC(=O)N2CCC[C@H]2C(N)=O)sc1-c1ccnc(C(C)(C)C(F)(F)F)c1 [Alpelisib] (partner 2 µM)
Outline: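 Lung cancer cell lines were pin-tool dosed in 1536-well plates on the day after seeding, with either a lone drug or a fixed anchor-drug dose plus five library-drug doses (not always all listed) in √10 steps. Nuclei were counted on 4× images after 5 days. Relative viability is the ratio of treated-well to vehicle-well nuclei counts, with each value a median of duplicate plates.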

| Cell Line | relative viability ([1]; 0.2 µM) | relative viability ([1]; 0.6325 µM) | relative viability ([1]; 2 µM) | relative viability ([1]; 6.325 µM) | relative viability ([1]; 20 µM) | relative viability (Lestaurtinib; 0.005 µM) | relative viability (Lestaurtinib; 0.01581 µM) | relative viability (Lestaurtinib; 0.05 µM) | relative viability (Lestaurtinib; 0.1581 µM) | relative viability (Lestaurtinib; 0.5 µM) | relative viability (TPCA-1; 0.04 µM) | relative viability (TPCA-1; 0.1265 µM) | relative viability (TPCA-1; 0.4 µM) | relative viability (TPCA-1; 1.265 µM) | relative viability (TPCA-1; 4 µM) | relative viability ([2]; first compound 0.2 µM) | relative viability ([2]; first compound 0.6325 µM) | relative viability ([2]; first compound 2 µM) | relative viability ([2]; first compound 6.325 µM) | relative viability ([2]; first compound 20 µM) |
| --- | --- | --- | --- | --- | --- | --- | --- | --- | --- | --- | --- | --- | --- | --- | --- | --- | --- | --- | --- | --- |
| H3255 | 1.03 | 1.04 | 0.977 | 0.899 | 0.972 | 1.03 | 1.08 | 0.935 | 0.744 | 0.511 | 1.08 | 0.898 | 0.916 | 0.816 | 0.783 | 0.759 | 0.553 | 0.661 | 0.66 | 0.704 |
| NCI-H2228 | 1.01 | 0.989 | 1.15 | 0.748 | 1.1 | 1.25 | 1.11 | 0.698 | 0.483 | 0.258 | 1.09 | 0.785 | 1.16 | 0.984 | 0.666 | 0.787 | 0.692 | 0.745 | 0.619 | 0.869 |
| CAL-12T | 1.04 | 1.07 | 0.978 | 0.859 | 0.994 | 0.962 | 1.17 | 0.968 | 0.788 | 0.61 | 0.989 | 0.925 | 1.05 | 0.86 | 0.468 | 1.33 | 1.15 | 0.95 | 0.856 | 1.13 |
| A-427 | 1.03 | 1.05 | 1.05 | 0.954 | 1.01 | 1.05 | 1.13 | 0.792 | 0.435 | 0.199 | 1.1 | 0.94 | 1.11 | 0.89 | 0.312 | 1.12 | 1.06 | 1.18 | 1.04 | 1.01 |
| HARA | 1.11 | 0.94 | 1.03 | 0.853 | 0.945 | 1.09 | 1.22 | 1.08 | 0.619 | 0.499 | 1.05 | 0.996 | 1.06 | 1.14 | 0.476 | 0.802 | 0.78 | 0.885 | 0.598 | 0.861 |
| NCI-H1793 | 0.962 | 0.953 | 1.1 | 0.856 | 0.87 | 0.949 | 0.986 | 0.657 | 0.828 | 0.723 | 1.1 | 0.718 | 1.08 | 0.954 | 0.279 | 0.64 | 0.656 | 0.763 | 0.696 | 0.559 |
| NCI-H2009 | 1.03 | 0.98 | 0.972 | 0.936 | 0.994 | 0.999 | 1.04 | 0.82 | 0.762 | 0.366 | 1.12 | 1 | 1.01 | 0.859 | 0.834 | 0.991 | 1.2 | 1.16 | 1.14 | 1.13 |
| ABC-1 | 0.87 | 1.03 | 1.13 | 0.842 | 0.888 | 0.976 | 1.01 | 0.79 | 0.735 | 0.327 | 1.02 | 0.798 | 0.982 | 0.771 | 0.638 | 1.06 | 1.17 | 1.11 | 0.881 | 0.739 |
| IA-LM | 1.04 | 1.01 | 0.905 | 0.91 | 0.94 | 1.11 | 1.42 | 1.28 | 1.21 | 0.557 | 1.1 | 0.923 | 0.963 | 0.812 | 0.903 | 0.728 | 0.746 | 0.651 | 0.679 | 0.768 |
| NCI-H322M | 0.928 | 0.924 | 1.01 | 0.804 | 0.912 | 0.904 | 0.924 | 0.497 | 0.663 | 0.624 | 1.11 | 0.885 | 1.03 | 1.13 | 0.704 | 0.739 | 0.833 | 0.832 | 0.666 | 0.708 |
| NCI-H1792 | 1.03 | 1.02 | 1.09 | 0.854 | 0.955 | 0.744 | 1.36 | 0.504 | 0.63 | 0.433 | 1.22 | 0.894 | 0.914 | 0.568 | 0.42 | 0.803 | 0.763 | 0.711 | – | 0.697 |
| LXF-289 | 1.03 | 1.03 | 1.02 | 0.902 | 0.991 | 0.963 | 1.02 | 0.93 | 0.901 | 0.315 | 1 | 0.934 | 0.954 | 0.953 | 0.69 | 1.02 | 1.08 | 1.05 | 0.974 | 1.04 |
| HCC-827 | 1.05 | 1.04 | 1.05 | 0.956 | 1.04 | 1.01 | 1.07 | 1.03 | 0.892 | 0.664 | 1.12 | 0.988 | 1.05 | 0.961 | 0.813 | 0.903 | 0.924 | 1.02 | 0.935 | 0.98 |
| EMC-BAC-2 | 0.904 | 1.06 | 0.978 | 0.916 | 1.07 | 0.925 | 1.04 | 0.73 | 0.417 | 0.357 | 1.01 | 0.979 | 1.05 | 0.819 | 0.392 | 0.743 | 0.75 | 0.694 | 0.655 | 0.696 |
| NCI-H520 | 1.04 | 1.13 | 1.12 | 0.969 | 0.886 | 1.13 | 1.07 | 0.789 | 0.524 | 0.292 | 1.16 | 0.835 | 0.941 | 1.1 | 0.371 | 0.927 | 0.847 | 0.928 | 0.82 | 0.835 |
| NCI-H1755 | 1.02 | 0.987 | 1.04 | 0.807 | 0.999 | 1.02 | 1.05 | 0.965 | 0.736 | 0.351 | 0.951 | 0.941 | 1.01 | 0.922 | 0.765 | 0.951 | 0.963 | 1 | 0.796 | 0.929 |
